The term IC50 denotes the point on the concentration scale where inhibition reaches its midpoint.

The subject of this test is P. falciparum 3D7 gametocytes. Put plainly: alamarBlue gametocyte viability assay, strain 3D7. The format is cell-based, Plasmodium falciparum. Conditions: Malaria Box; for Max Resp: DMSO set at 0%, 100 nM epoxomicin set at -100%; for Curve Class / IC50: stages III-V 3D7 gametocytes; for IC50: 11 concentrations, 1:3 dilution; call rule not given here.

Where two headings read alike, the source gives them in different places.

On to `COc1ccc(CN2CCN(Cc3ccccc3)CC2)c(O)c1` [MMV665944], for which the “Max Resp” value is given as -96% and the “Curve Class” value was -2.1. Besides, for the setting “read-out: IC50”, the IC50 was determined as 6.62 µM.
The corresponding values for `CC1CCN(Cc2c(O)ccc3cc(-c4nc5ccccc5s4)c(=O)oc23)CC1` [MMV009127] are -72%, -2.2 and 29.6 µM.
As for `CC(C)OCc1cc(CN2CCN(c3cccc(Cl)c3)CC2)c(O)c2ncccc12` [MMV000788], the “Max Resp” value is listed as -97% and the “Curve Class” value is recorded as -1.1. Moreover, the IC50 (read-out: IC50) came out at 8.33 µM.
On the same counts, the results for `CC(O)(c1ccc(Cl)cc1)C(CN1CCCCC1)c1ccccc1.Cl` (stereo not drawn) [MMV000620] are -78%, -2.2 and 9.35 µM.
The corresponding values for `CCC(O)c1ccc(Br)cc1NC(=O)c1cccc(Cl)c1` (stereo not drawn) [MMV020654] are -37%, -1.2 and 2.09 µM.
On the same counts, the results for `CCOC(=O)C1(Cc2ccccc2)CCN(Cc2cccc(OC)c2O)CC1` [MMV666109] are -58%, -1.2 and 5.26 µM.
With `COc1ccc(Nc2nc(NCc3ccccc3)c3ccccc3n2)cc1` [MMV000963], the “Max Resp” value was -86% and the “Curve Class” value is given as -2.1. The IC50 (read-out: IC50) is 9.35 µM.
Consider `O=C(NC1CCN(Cc2ccccc2)CC1)c1cc(-c2cccnc2)nc2ccc(Cl)cc12` [MMV020490], for which the “Max Resp” value is -61% and the “Curve Class” value is recorded as -2.2. Besides, where the note is “read-out: IC50”, the IC50 was found to be 29.6 µM.
For the compound `CCCCCCc1cc(O)c2c3c(c(=O)oc2c1)CCC(C)C3` (stereo not drawn) [MMV665987], the “Max Resp” value came to 0%, the “Curve Class” value came out at 4 and the IC50 result is reported as “Inactive”.
On the same counts, the results for `O=C(Nc1ccc(-c2nc3cc4ccccc4cc3[nH]2)cc1)c1cccc(Br)c1` [MMV019241] are -32%, -2.4 and “Inactive”.
For `COc1ccc(N2CCN(C(CNC(=O)C3CCCCC3)c3ccc4c(c3)OCO4)CC2)cc1` (stereo not drawn) [MMV019662], the “Max Resp” value is listed as -21%, the “Curve Class” value was 4 and the 50% inhibitory concentration (IC50) entry is recorded as “Inactive”.
The corresponding values for `N=c1c2ccccc2nnn1-c1cccc(C(F)(F)F)c1` [MMV665923] are 14%, 4 and “Inactive”.
For `CCCCCn1c(=N)n(CC(O)COc2cccc(C)c2)c2ccccc21.Cl` (stereo not drawn) [MMV000444], the “Max Resp” value is listed as -107% and the “Curve Class” value is on record as -1.1. Also, where the note is “read-out: IC50”, the IC50 amounted to 8.33 µM.
Take `COc1ccc(C2N(C)c3ccccc3N2C)cc1` [MMV666075]: the “Max Resp” value is -34%, the “Curve Class” value is -2.4 and the IC50 result is reported as “Inactive”.
On the same counts, the results for `COc1ccc2sc(N(Cc3cccnc3)C(=O)c3ccc(C#N)cc3)nc2c1` [MMV001239] are -40%, -2.2 and “Inactive”.
The corresponding values for `O=C(NCc1ccco1)C1CCN(S(=O)(=O)c2ccc(Cl)cc2)CC1` [MMV006188] are 19%, 4 and “Inactive”.
On the same counts, the results for `CCOC(=O)c1ccc2[nH]c(-c3ccccc3)cc(=O)c2c1` [MMV006457] are 14%, 4 and “Inactive”.
For `CCCCN(CCCC)S(=O)(=O)c1ccc(NC(=O)c2ccco2)cc1` [MMV007881], the “Max Resp” value is recorded as 15%, the “Curve Class” value was 4 and the IC50 result is recorded as “Inactive”.
For the compound `C=C(C)CCC(C)N1CCC(N2CCC(C(=O)NCCc3ccccc3)CC2)CC1` (stereo not drawn) [MMV666110], the “Max Resp” value is -73% and the “Curve Class” value was -2.2. For the setting “read-out: IC50”, the 50% inhibitory concentration (IC50) was found to be 29.6 µM.
Turning to `COCCN(C(=O)Cc1cccs1)C(C(=O)NCc1ccc(OC)cc1)c1ccc(C(C)C)cc1` (stereo not drawn) [MMV666105], the “Max Resp” value is on record as -42%, the “Curve Class” value is recorded as -2.2 and the IC50 entry is “Inactive”.
As for `CCCc1c(CC)c(=N)c2ccccc2n1C` [MMV008416], the “Max Resp” value is on record as -53% and the “Curve Class” value is -2.2. In addition, under “read-out: IC50”, the IC50 came to 37.2 µM.
The corresponding values for `CCOC(=O)c1c(NC(=O)c2ccccc2)sc2c(O)c(CN(CC)CC)ccc12` [MMV665831] are -58%, -2.2 and 7.43 µM.
`O=C(CCl)NCCOc1ccc(Cl)cc1Cl` [MMV665927]: the “Max Resp” value was -88% and the “Curve Class” value is -2.1. Besides, the IC50 (read-out: IC50) was determined as 16.6 µM.
Consider `Cc1cc(Nc2ccc3ccccc3c2)n2ncnc2n1` [MMV011099], for which the “Max Resp” value is -5%, the “Curve Class” value is reported as 4 and the IC50 entry was “Inactive”.
On to `COc1ccc(C(=O)NC(c2ccccc2Cl)c2cc(Cl)c3cccnc3c2O)cc1` (stereo not drawn) [MMV666022], for which the “Max Resp” value is -83% and the “Curve Class” value was -2.1. In addition, under “read-out: IC50”, the IC50 worked out at 14.8 µM.
On the same counts, the results for `Oc1ccc(C(=C(Cl)Cl)c2ccc(O)cc2)cc1` [MMV665949] are -40%, -1.2 and 9.35 µM.
As for `Cc1cc(Nc2ccc(C)c(Cl)c2)n2nc(C(F)(F)F)nc2n1` [MMV665874], the “Max Resp” value is given as -2%, the “Curve Class” value was found to be 4 and the IC50 entry is reported as “Inactive”.
On the same counts, the results for `CCN(CC)c1cc(C)c2cc(NC(=O)c3cccc(OC)c3)ccc2n1` [MMV000498] are -20%, 4 and “Inactive”.
On to `CCN(CC)CCNc1ncnc2c1[nH]c1ccc(Br)cc12` [MMV305841], for which the “Max Resp” value is on record as -95% and the “Curve Class” value is -1.1. Also, the 50% inhibitory concentration (IC50) (read-out: IC50) stood at 5.26 µM.
As for `O=C(Nc1cccc(-c2nc3ccccc3[nH]2)c1)c1cccc(NC(=O)c2ccco2)c1` [MMV665883], the “Max Resp” value is -25%, the “Curve Class” value amounted to 4 and the IC50 result is listed as “Inactive”.
For the compound `Cc1cc(C)c2nc(N3CCC(C(=O)NCCCN4CCC(N5CCCCC5)CC4)CC3)sc2c1` [MMV019780], the “Max Resp” value is on record as -106% and the “Curve Class” value is listed as -1.1. For the same compound, the IC50 (read-out: IC50) was found to be 4.18 µM.
`CCN1CCN(Cc2ccc(NC(=O)c3cc4ccc5cccnc5c4[nH]3)cc2)CC1` [MMV020548]: the “Max Resp” value is -56%, the “Curve Class” value is recorded as -3 and the IC50 entry is listed as “Inactive”.
As to `COc1ccc(CCN2C(=O)c3[nH]nc(-c4cc(Cl)c(C)cc4O)c3C2c2ccccc2F)cc1` (stereo not drawn) [MMV396717], the “Max Resp” value is recorded as -70% and the “Curve Class” value is recorded as -2.2. The IC50 (read-out: IC50) was found to be 23.5 µM.
As for `Cc1ccc(-c2cc3c(SCC(=O)Nc4cc(C(F)(F)F)ccc4Cl)nccn3n2)cc1` [MMV396680], the “Max Resp” value was -21%, the “Curve Class” value came to 4 and the IC50 result is on record as “Inactive”.
As for `CCOc1cc2c(cc1OCC)C(c1cc(OC)c(O)cc1Cl)NCC2` (stereo not drawn) [MMV008956], the “Max Resp” value is -73% and the “Curve Class” value was -1.2. For the setting “read-out: IC50”, the concentration for half-maximal inhibition (IC50) was 3.32 µM.
The corresponding values for `CCCCCCc1cc2cc(-c3csc(C=Cc4ccccc4)n3)c(=O)oc2cc1O` [MMV666692] are -54%, -2.2 and 29.6 µM.
`CC(=O)c1ccc(NC(=O)CSc2nc(-c3ccccc3Cl)ns2)cc1` [MMV666124]: the “Max Resp” value is listed as -33%, the “Curve Class” value is -3 and the IC50 result was “Inactive”.
Turning to `COc1ccc(C2NCCc3c2[nH]c2ccccc32)cc1CN1CCN(c2ccc(F)cc2)CC1.Cl` (stereo not drawn) [MMV019690], the “Max Resp” value is -89% and the “Curve Class” value is on record as -1.1. For the same compound, for the setting “read-out: IC50”, the IC50 came out at 6.62 µM.
On the same counts, the results for `COc1cc(C(=O)ON=C(N)Cc2cccc3ccccc23)cc(OC)c1OC` [MMV666687] are -100%, -2.1 and 14.8 µM.
The corresponding values for `Cc1c(C)n(CC(O)CNC2CCCCC2C)c2ccccc12` (stereo not drawn) [MMV665806] are -89%, -1.1 and 3.32 µM.
On the same counts, the results for `COc1ccc2c(c1)C1(Nc3ccccc3-c3nc4ccccc4n31)C(=O)N2` (stereo not drawn) [MMV396749] are -61%, -2.2 and 18.7 µM.
For the compound `CCCn1c(=N)c(C(=O)NC2CCCCC2)cc2c(=O)n3cccc(C)c3nc21` [MMV008829], the “Max Resp” value is on record as -26%, the “Curve Class” value was determined as 4 and the IC50 entry was “Inactive”.
In the case of `CC1CC2=C(CC1CNCCCN(C)C)C(C)(C)CCC2` (stereo not drawn) [MMV665830], the “Max Resp” value is -88% and the “Curve Class” value is reported as -1.1. In addition, under “read-out: IC50”, the IC50 came to 1.66 µM.
As to `COc1ccc(CCNC(=O)c2cc(S(=O)(=O)N3CC(C)CC(C)C3)ccc2Sc2ccc(F)cc2)cc1OC` (stereo not drawn) [MMV007557], the “Max Resp” value is given as -72% and the “Curve Class” value is -2.2. In addition, the IC50 (read-out: IC50) is 9.35 µM.
Regarding `CCOc1ccc(CCNC(=O)c2cccs2)cc1OCC` [MMV007978], the “Max Resp” value is listed as -13%, the “Curve Class” value came out at 4 and the IC50 entry is listed as “Inactive”.
As to `COc1ccccc1CNC(=O)CCn1c(=O)[nH]c2ccsc2c1=O` [MMV019066], the “Max Resp” value was -11%, the “Curve Class” value amounted to 4 and the IC50 result is reported as “Inactive”.
For `CC(C)(C)CC(C)(C)NCC(O)COc1ccc(Cl)cc1Cl` (stereo not drawn) [MMV396794], the “Max Resp” value is given as -106% and the “Curve Class” value was -1.1. Further, where the note is “read-out: IC50”, the IC50 stood at 2.96 µM.

The values above are taken from article PMC3894558, “Chemical signatures and new drug targets for gametocytocidal drug development” (Scientific Reports, 2014).
